For 9 compounds, IC50 results are on record in ChEMBL document CHEMBL4257526, “Identification of an auxiliary druggable pocket in the DNA gyrase ATPase domain using fragment probes” (Medchemcomm, 2018).

pIC50: −log10 of the molar value.

The assay deals with DNA gyrase (Escherichia coli, UniProt P0AES4+P0AES6). Put plainly: Inhibition of full length Escherichia coli DNA gyrase ATPase activity measured for 20 mins by lactate dehydrogenase assay. Format: protein-complex assay.
Regarding `Cc1cc(Oc2ccc(Cl)cc2Cl)ccc1O`, the pIC50 (as a rule, the IC50 on a negative log10 scale, so that one unit is a factor of ten) was 4.08. Turning to `Oc1ccc(Oc2cccc(C(F)(F)F)c2)cc1`, the pIC50 was 3.62. To `CC(C)(c1ccccc1)c1ccc(O)cc1` belongs 3.41. To `Oc1ccc(Oc2ccc(C(F)(F)F)cc2)cc1` belongs 3.74. `Oc1ccc(Oc2ccc(C(F)(F)F)cc2Cl)cc1`: the pIC50 was 4.00. As for `Oc1ccc(Oc2ccc(Cl)cc2)cc1`, the figure is 3.57; as for `Cc1ccc(CCC(=O)O)cc1`, 3.92; as for `Oc1ccc(Oc2cccc(Cl)c2)cc1`, 3.49. With `Oc1ccc(Oc2ccc(Cl)cc2Cl)cc1`, the pIC50 was 3.92.
